# Earlier results as cited in patent US20150272930A1, “Fixed Dosage Formulations of Angiotensin Converting Enzyme (ACE) inhibitor and the Diuretic Chlorthalidone” (AILEX Pharmaceuticals PVT. LTD., priority 2014, published 2015).
# Conditions: compared with HCTZ
compound,measurement,setting,value
"NS(=O)(=O)c1cc(C2(O)NC(=O)c3ccccc32)ccc1Cl (centres unmarked) [Chlorthalidone, 2-chloro-5-(1-hydroxy-3-oxo-1,2-dihydroisoindol-1-yl)-benzenesulfonamide]",duration of action,,longer duration of action
same,antihypertensive effectiveness,over 24 hours,more effective antihypertensive agent
